Measurements published in PMC11982498 (Redox Biology, 2025).

Key:
SH-SY5Y cells = assay: MTT cytotoxicity assay, SH-SY5Y; type: cell-based
Procedure: SH-SY5Y cells, HepG2 cells, HK-2 cells and HT-22 cells were seeded on 96-well plates (5.0×10^3 per well) with 100 μL of culture medium, and incubated for 12 h at 37 °C in a humidified atmosphere with 5% CO2, and then exposed to various concentrations of B14. After 48 h of treatment at 37 °C in a humidified atmosphere with 5% CO2, 100 μL of 0.5 mg/mL MTT solution was added to each well, and the mixture was further incubated for 4 h. The cells in each well were then treated with DMSO (200 μL for each well), and the culture medium was siphoned off, and the absorbance was recorded at 570 nm. All drug doses were parallel tested in triplicate, and the cytotoxicity was evaluated based on the percentage of cell survival in a dose-dependent manner regarding the negative control. The final IC50 values were determined by using Graph Pad Prism 9.0.

[1] = tested on: BAX, Cleaved Caspase 3, Cleaved Caspase 9, Cyto-C, Apaf-1 in SH-SY5Y cells; assay: Western blot of apoptosis related proteins in Aβ1-42 induced cell model; type: cell-based; details: 25 μM Aβ1-42 induced model
Procedure: Protein samples (25–40 μg) were separated using 10 % SDS-PAGE and subsequently transferred onto PVDF membranes (0.22 μm, Servicebio, Guangzhou, China) via electro transfer. Following blocking with TBST solution (Servicebio, Guangzhou, China) containing 5 % BSA (Solarbio, Beijing, China) for approximately 60 min at room temperature, the membrane was exposed to various primary antibodies overnight at 4 °C on a rotating shaker. Then, the membranes were incubated with HRP-conjugated secondary antibody (Affinity, Changzhou, China) for 2 h. Protein bands were then detected using an ECL kit. The signal intensity of each target protein was quantified using Image J 1.8.0 software (Bio-Rad Laboratories, California, USA).
Primary antibodies for Western blot analysis include BCL-2 (affinity biosciences OH, Cat# AF6139, USA), BAX (affinity biosciences OH, Cat# AF0120, USA), VEGF (affinity biosciences OH, Cat# AF5131, USA), C-MYC (affinity biosciences OH, Cat# AF0358, USA), Caspase9 (affinity biosciences OH, Cat# AF6348, USA), cleaved-Caspase9 (affinity biosciences OH, Cat# AF5240, USA), Caspase3 (affinity biosciences OH, Cat# AF6311, USA), cleaved-Caspase3 (affinity biosciences OH, Cat# AF7022, USA), and Cyto-C (affinity biosciences OH, Cat# AF6139, USA).

[2] = tested on: C-MYC gene transcription in SH-SY5Y cells; assay: Real-time RT-PCR in SH-SY5Y cells, C-MYC; type: cell-based, human
Procedure: SH-SY5Y cells were treated with or without B14, and total RNA was subsequently isolated and purified. Reverse transcription was performed using a cDNA synthesis kit. The relative transcription levels of the genes were evaluated through quantitative real-time PCR using the SYBR Green-based method, as described in the Supplementary Date. Details regarding the primer sequences and the raw data can be found in Table S7 and Table S8.
^a -∆∆Ct = -[(Ct value of genes in treated sample - Ct value of genes in control) - (Ct value of β-actin in treated sample - Ct value of β-actin in control)]. ^b F: The relative expression fold.
Experiment 1: SH-SY5Y cells were treated with different concentration of B14. The Ct values of BAX, VEGF, CMYC and BCL-2 were obtained.
Total RNA was extracted from cells and mice liver tissue using RNAiso Plus (Takara, 9109, Japan). Following sample homogenization, chloroform was added, and the solution was allowed to have phase separation into an upper aqueous layer (containing RNA), an interphase, and a lower organic layer (containing DNA and proteins). RNA was precipitated from the aqueous phase using isopropanol, while DNA was precipitated from the aqueous-organic interphase using ethanol. Complementary DNA (cDNA) was synthesized using the One-Step RT-PCR Kit (Takara, Cat#639503, Japan).
Quantitative real-time polymerase chain reaction (qRT-PCR) was performed using the 2× RealStar SYBR Mixture (GenStar, Cat# A301-10, Guangzhou, China) on a LightCycler 480 II real-time PCR system (Roche, USA). Data were analyzed using the 2^−ΔΔCt method. Actin served as the internal control, and relative mRNA levels were normalized accordingly.

[3] = tested on: BCL-2(G4) (DNA, G4) AGGGGCGGGCGCGGGAGGAAGGGGGCGGGAGCGGGGCTG; assay: ESI-MS; details: K+ 100 mM KCl plus potassium phosphate; BPES buffer, pH 7.4; no adduct peak
RET promoter i-motif = assay: TO displacement assay, RET i-motif; type: binding
Procedure: DNA oligonucleotides were diluted to 1 μM with 1 × PBES buffer at pH 5.5, annealed at 95 °C for 10 min, cooled to room temperature, and stored at 4 °C for future use. TO dye (1 μM) was added to the DNA solution followed with incubation for 1 h. The spectra of 100 μL mixture with addition of different equivalent compounds at 25 °C were recorded based on fluorescence emission (λex = 480 nm).
TO displacement ratio (%) = (F0 − FC) / (F0 − FB) * 100.
F0 and FC were the fluorescence intensity of TO at 536 nm with DNA before and after adding compounds, respectively. FB was the fluorescence intensity of TO at 536 nm with buffer only.

BCL-2 i-motif = assay: ESI-MS with BCL-2 i-motif; type: binding; details: pH 6.5
Procedure: The oligomer for BCL-2 promoter […] at concentration of 5 μM was annealed in 1 × BPES buffer with or without 20 μM B14 at 95 °C for 5 min, followed by cooling to room temperature. Mass spectrometry signals were collected by using ESI-MS (Thermo, LCQ DECA Plus XP) and analyzed by using pro-mass.

## O=C(CCN1CCOCC1)Nc1ccc2c(c1)c(=O)c1cc(NC(=O)CCN3CCOCC3)ccc1n2-c1ccc2occc2c1 [Compound B14]
SH-SY5Y cells
  toxicity to SH-SY5Y cells (viability): no significant toxicity to SH-SY5Y cells
SH-SY5Y cells; Homo sapiens, SH-SY5Y, incubation for 48 h
  IC50: > 100 µM
[1]
  levels of pro-apoptotic proteins (Western blot): decreased levels of pro-apoptotic proteins
[2]; 6.25 μM B14
  -∆∆Ct, C-MYC: -0.01
  F = 2^-∆∆Ct (relative expression fold), C-MYC: 1.00
[2]; 12.5 μM B14
  -∆∆Ct, C-MYC: -0.02
  F = 2^-∆∆Ct (relative expression fold), C-MYC: 1.01
[2]; 25 μM B14
  -∆∆Ct, C-MYC: -0.03
  F = 2^-∆∆Ct (relative expression fold), C-MYC: 1.02
[3]
  binding: no
RET promoter i-motif
  TO displacement ratio: 27%
BCL-2 i-motif
  adduct peak in ESI-MS: could bind tightly to BCL-2 i-motif
